According to patent US20100267774A1, “P38 MAP KINASE INHIBITORS” (CHROMA THERAPEUTICS LTD., priority 2007, published 2010):

Molecular target: T1, p38 MAP Kinase a (Homo sapiens, UniProt Q16539)
T1 construct: purchased Upstate (Dundee UK)
Assay: p38 MAP Kinase activity, radiometric filter-binding assay (Upstate)
Assay type: biochemical
Details: IC50 range; read-out: Inhibitor activity versus p38 MAPKa
Procedure: The ability of compounds to inhibit p38 MAP a Kinase activity was measured in an assay performed by Upstate (Dundee UK). In a final reaction volume of 25 μL, p38 MAP Kinase a (5-10 mU) is incubated with 25 mM Tris pH 7.5, 0.002 mMEGTA, 0.33 mg/mL myelin basic protein, 10 mM MgAcetate and [g-33P-ATP] (specific activity approx. 500 cpm/pmol, concentration as required). The reaction is initiated by the addition of the MgATP mix. After incubation for 40 minutes at room temperature, the reaction is stopped by the addition of 5 μL of a 3% phosphoric acid solution. 10 μL of the reaction is then spotted onto a P30 filtermat and washed three times for 5 minutes in 75 mM phosphoric acid and once in methanol prior to drying and scintillation counting.
Duplicate data points are generated from a 1/3 log dilution series of a stock solution in DMSO. Nine dilutions steps are made from a top concentration of 10 μM, and a ‘no compound’ blank is included. The standard radiometric filter-binding assay is performed at an ATP concentration at, or close to, the Km. Data from scintillation counts are collected and subjected to free-fit analysis by Prism software. From the curve generated, the concentration giving 50% inhibition is determined and reported.

T1 sequence (Q16539 whole entry): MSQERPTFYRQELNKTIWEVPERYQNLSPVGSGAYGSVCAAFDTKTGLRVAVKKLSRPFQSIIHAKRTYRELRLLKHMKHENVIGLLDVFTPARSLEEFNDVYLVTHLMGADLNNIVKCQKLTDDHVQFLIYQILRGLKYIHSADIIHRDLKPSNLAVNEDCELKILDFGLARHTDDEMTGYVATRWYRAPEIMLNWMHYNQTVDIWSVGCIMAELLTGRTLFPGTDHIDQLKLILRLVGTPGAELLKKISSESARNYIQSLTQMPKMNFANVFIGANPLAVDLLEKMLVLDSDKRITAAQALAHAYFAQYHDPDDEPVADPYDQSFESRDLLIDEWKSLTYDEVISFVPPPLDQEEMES

SMILES	IC50
C[C@H](NCCc1ccc(-n2c(N)c(C(=O)c3ccc(F)cc3F)ccc2=O)cc1)C(=O)OC(C)(C)C [Example 21, tert-butyl N-[2-(4-{6-amino-5-[(2,4-difluorophenyl)carbonyl]-2-oxopyridin-1(2H)-yl}phenyl)ethyl]-L-alaninate]	< 100 nM
CC(C)C[C@@H](NCCc1ccc(-n2c(N)c(C(=O)c3ccc(F)cc3F)ccc2=O)cc1)C(=O)O [Example 55, N-[2-(4-{6-amino-5-[(2,4-difluorophenyl)carbonyl]-2-oxopyridin-1(2H)-yl}phenyl)ethyl]-D-leucine]	100 to 1000 nM
Nc1c(C(=O)c2ccc(F)cc2F)ccc(=O)n1-c1ccc(CCN[C@@H](CO)C(=O)O)cc1 [Example 57, N-[2-(4-{6-amino-5-[(2,4-difluorophenyl)carbonyl]-2-oxopyridin-1(2H)-yl}phenyl)ethyl]-L-serine]	< 100 nM
CC(C)C[C@H](NCCc1ccc(-n2c(N)c(C(=O)c3ccc(F)cc3F)ccc2=O)cc1)C(=O)O[C@H]1C[C@@H](C)CC[C@@H]1C(C)C [Example 14, (1S,2R,5S)-2-Isopropyl-5-methylcyclohexyl N-(2-{4-[6-amino-5-(2,4-difluorobenzoyl)-2-oxopyridin-1(2H)-yl]phenyl}ethyl)-L-leucinate]	> 1000 nM
CC(C)C[C@@H](NCCc1cc(F)c(-n2c(N)c(C(=O)c3ccc(F)cc3F)ccc2=O)c(F)c1)C(=O)O [Example 68, N-(2-{4-[6-amino-5-(2,4-difluorobenzoyl)-2-oxopyridin-1(2H)-yl]-3,5-difluorophenyl}ethyl)-D-leucine]	< 100 nM
CC(C)(C)OC[C@H](NCCc1cc(F)c(-n2c(N)c(C(=O)c3ccc(F)cc3F)ccc2=O)c(F)c1)C(=O)O [Example 69, N-(2-{4-[6-amino-5-(2,4-difluorobenzoyl)-2-oxopyridin-1(2H)-yl]-3,5-difluorophenyl}ethyl)-O-tert-butyl-L-serine]	< 100 nM
CC(C)(C)OC[C@H](NCCc1cc(F)c(-n2c(N)c(C(=O)c3ccc(F)cc3)ccc2=O)c(F)c1)C(=O)OC(C)(C)C [Example 32, tert-butyl N-(2-{4-[6-amino-5-(4-fluorobenzoyl)-2-oxopyridin-1(2H)-yl]-3,5-difluorophenyl}ethyl)-O-tert-butyl-L-serinate]	100 to 1000 nM
CC(C)C[C@H](NCCc1ccc(-n2c(N)c(C(=O)c3ccc(F)cc3F)ccc2=O)s1)C(=O)O [Example 71, N-(2-{5-[6-amino-5-(2,4-difluorobenzoyl)-2-oxopyridin-1(2H)-yl]-2-thienyl}ethyl)-L-leucine]	100 to 1000 nM
CC(C)(C)[C@H](NCCc1ccc(-n2c(N)c(C(=O)c3ccc(F)cc3F)ccc2=O)cc1)C(=O)O [Example 54, N-[2-(4-{6-amino-5-[(2,4-difluorophenyl)carbonyl]-2-oxopyridin-1(2H)-yl}phenyl)ethyl]-3-methyl-L-valine]	100 to 1000 nM
C[C@@H](OC(C)(C)C)[C@H](NCCc1ccc(-n2c(N)c(C(=O)c3ccc(F)cc3F)ccc2=O)cc1)C(=O)OC(C)(C)C [Example 16, tert-butyl N-[2-(4-{6-amino-5-[(2,4-difluorophenyl)carbonyl]-2-oxopyridin-1(2H)-yl}phenyl)ethyl]-O-tert-butyl-L-threoninate]	100 to 1000 nM
CC(C)(C)OC[C@H](NCCc1cc(F)c(-n2c(N)c(C(=O)c3ccc(F)cc3)ccc2=O)c(F)c1)C(=O)O [Example 65, N-(2-{4-[6-amino-5-(4-fluorobenzoyl)-2-oxopyridin-1(2H)-yl]-3,5-difluorophenyl}ethyl)-O-tert-butyl-L-serine]	< 100 nM
CC(C)(C)OC[C@H](NCCc1ccc(-n2c(N)c(C(=O)c3ccc(F)cc3F)ccc2=O)cc1)C(=O)O [Example 56, N-[2-(4-{6-amino-5-[(2,4-difluorophenyl)carbonyl]-2-oxopyridin-1(2H)-yl}phenyl)ethyl]-O-tert-butyl-L-serine]	< 100 nM
CC(C)[C@H](NCCc1ccc(-n2c(N)c(C(=O)c3ccc(F)cc3F)ccc2=O)cc1)C(=O)O [Example 53, N-[2-(4-{6-amino-5-[(2,4-difluorophenyl)carbonyl]-2-oxopyridin-1(2H)-yl}phenyl)ethyl]-L-valine]	< 100 nM
Nc1c(C(=O)c2ccc(F)cc2F)ccc(=O)n1-c1ccc(CCN[C@H](C(=O)O)C2CCCCC2)cc1 [Example 52, (2S)-{[2-(4-{6-amino-5-[(2,4-difluorophenyl)carbonyl]-2-oxopyridin-1(2H)-yl}phenyl)ethyl]amino}(cyclohexyl)ethanoic acid]	100 to 1000 nM
CC(C)C[C@@H](NCCc1ccc(-n2c(N)c(C(=O)c3ccc(F)cc3F)ccc2=O)cc1)C(=O)OC(C)(C)C [Example 10, tert-butyl N-[2-(4-{6-amino-5-[(2,4-difluorophenyl)carbonyl]-2-oxopyridin-1(2H)-yl}phenyl)ethyl]-D-leucinate]	100 to 1000 nM
Nc1c(C(=O)c2ccc(F)cc2F)ccc(=O)n1-c1c(F)cc(CCN[C@H](C(=O)O)c2ccccc2)cc1F [Example 66, (2S)-[(2-{4-[6-amino-5-(2,4-difluorobenzoyl)-2-oxopyridin-1(2H)-yl]-3,5-difluorophenyl}ethyl)amino](phenyl)acetic acid]	< 100 nM
CC(C)C[C@H](NCCc1cc(F)c(-n2c(N)c(C(=O)c3ccc(F)cc3)ccc2=O)c(F)c1)C(=O)O [Example 63, N-(2-{4-[6-amino-5-(4-fluorobenzoyl)-2-oxopyridin-1(2H)-yl]-3,5-difluorophenyl}ethyl)-L-leucine]	< 100 nM
C[C@H](NCCc1ccc(-n2c(N)c(C(=O)c3ccc(F)cc3F)ccc2=O)cc1)C(=O)O [Example 60, N-[2-(4-{6-amino-5-[(2,4-difluorophenyl)carbonyl]-2-oxopyridin-1(2H)-yl}phenyl)ethyl]-L-alanine]	< 100 nM
Nc1c(C(=O)c2ccc(F)cc2F)ccc(=O)n1-c1ccc(CCN[C@@H](Cc2ccccc2)C(=O)O)cc1 [Example 61, N-[2-(4-{6-amino-5-[(2,4-difluorophenyl)carbonyl]-2-oxopyridin-1(2H)-yl}phenyl)ethyl]-L-phenylalanine]	< 100 nM
CC(C)C[C@H](NCCc1ccc(-n2c(N)c(C(=O)c3ccc(F)cc3F)ccc2=O)s1)C(=O)OC(C)(C)C [Example 50, tbutyl N-(2-{5-[6-amino-5-(2,4-difluorobenzoyl)-2-oxopyridin-1(2H)-yl]-2-thienyl}ethyl)-L-leucinate]	100 to 1000 nM
CC(C)(C)OC(=O)[C@H](Cc1ccccc1)NCCc1ccc(-n2c(N)c(C(=O)c3ccc(F)cc3F)ccc2=O)cc1 [Example 23, tert-butyl N-[2-(4-{6-amino-5-[(2,4-difluorophenyl)carbonyl]-2-oxopyridin-1(2H)-yl}phenyl)ethyl]-L-phenylalaninate]	100 to 1000 nM
CC(C)C[C@H](NCCc1cc(F)c(-n2c(N)c(C(=O)c3ccc(F)cc3F)ccc2=O)c(F)c1)C(=O)O [Example 67, N-(2-{4-[6-amino-5-(2,4-difluorobenzoyl)-2-oxopyridin-1(2H)-yl]-3,5-difluorophenyl}ethyl)-L-leucine]	< 100 nM
Nc1c(C(=O)c2ccc(F)cc2F)ccc(=O)n1-c1ccc(CCN[C@H](C(=O)OC2CCCC2)C2CCCCC2)cc1 [Example 3, Cyclopentyl (2S)-{[2-(4-{6-amino-5-[(2,4-difluorophenyl)carbonyl]-2-oxopyridin-1(2H)-yl}phenyl)ethyl]amino}(cyclohexyl)ethanoate]	100 to 1000 nM
CC(C)C[C@@H](NCCc1cc(F)c(-n2c(N)c(C(=O)c3ccc(F)cc3)ccc2=O)c(F)c1)C(=O)O [Example 64, N-(2-{4-[6-amino-5-(4-fluorobenzoyl)-2-oxopyridin-1(2H)-yl]-3,5-difluorophenyl}ethyl)-D-leucine]	< 100 nM
Nc1c(C(=O)c2ccc(F)cc2F)ccc(=O)n1-c1ccc(CCN[C@H](C(=O)O)c2ccccc2)cc1 [Example 51, (2S)-[(2-{4-[6-amino-5-(2,4-difluorobenzoyl)-2-oxopyridin-1(2H)yl]-phenyl}ethyl)amino](phenyl)acetic acid]	100 to 1000 nM
CC[C@H](C)[C@H](NCCc1ccc(-n2c(N)c(C(=O)c3ccc(F)cc3F)ccc2=O)cc1)C(=O)OC(C)(C)C [Example 19, tert-butyl N-[2-(4-{6-amino-5-[(2,4-difluorophenyl)carbonyl]-2-oxopyridin-1(2H)-yl}phenyl)ethyl]-L-isoleucinate]	100 to 1000 nM
C[C@@H](O)[C@H](NCCc1ccc(-n2c(N)c(C(=O)c3ccc(F)cc3F)ccc2=O)cc1)C(=O)O [Example 58, N-[2-(4-{6-amino-5-[(2,4-difluorophenyl)carbonyl]-2-oxopyridin-1(2H)-yl}phenyl)ethyl]-L-threonine]	< 100 nM
Nc1c(C(=O)c2ccc(F)cc2)ccc(=O)n1-c1c(F)cc(CCN[C@H](C(=O)O)c2ccccc2)cc1F [Example 62, (2S)-[(2-{4-[6-amino-5-(4-fluorobenzoyl)-2-oxopyridin-1(2H)-yl]-3,5-difluorophenyl}ethyl)amino](phenyl)acetic acid]	< 100 nM
CC(C)(C)OC(=O)[C@@H](NCCc1ccc(-n2c(N)c(C(=O)c3ccc(F)cc3F)ccc2=O)cc1)c1ccccc1 [Example 2, tert-butyl (2S)-{[2-(4-{6-amino-5-[(2,4-difluorophenyl)carbonyl]-2-oxopyridin-1(2H)-yl}phenyl)ethyl]amino}(phenyl)ethanoate]	100 to 1000 nM
